Assay results: patent publication US11478474B2, “2-(3′-(hydroxymethyl)-1-methyl-5-((5-(2-methyl-4-(oxetan-3-yl)piperazin-1-yl)pyridin-2-yl)amino)-6-oxo-1,6-dihydro-[3,4′-bipyridin]-2′-yl)-7,7-dimethyl-7,8-dihydro-2H-cyclopenta[4,5]pyrrolo[1,2-a]pyrazin-1(6H)-one as a BTK inhibitor” (HUTCHISON MEDIPHARMA LIMITED, priority 2020, dated 2022)

Legend:
[1] = test system: TMD8 subcutaneous xenograft (human diffuse large B-cell lymphoma cells); assay: In vivo efficacy in TMD8 subcutaneous xenograft model in nude mice
Method: Example 7 Evaluation of In Vivo Efficacy of the Compound of the Present Invention in TMD8 Subcutaneous Xenograft Model
Objects: To investigate the anti-tumor activity of compound 19 in TMD8 subcutaneous xenograft model in nude mice.
Methods: Human diffuse large B-cell lymphoma cells TMD8 (acquired under license from Tokyo Medical and Dental University) were cultured in RPMI1640 medium containing 10% fetal bovine serum. 1×10^7 tumor cells suspended in RPMI1640 medium mixed well with Matrigel (purchased from Corning, USA) at 1:1 were implanted subcutaneously on the right flank of each male Balb/c nude mouse (Shanghai Lingchang Biotechnology Co., Ltd.), pretreated with cyclophosphamide (at a dose of 200 mg/kg, intraperitoneal injection 24 h before cell inoculation). […] All drugs were administered by oral gavage, once a day, and the vehicle control group was administered orally with 0.5% hydroxypropyl methylcellulose solution (pH=3).
Tumor volumes (tumor volume=0.5×long diameter×short diameter^2) and body weights of the mice were measured regularly. The tumor volume change and body weight were statistically analyzed, with p<0.05 considered statistically significant, and p<0.01 as extremely statistically significant.
The anti-tumor activity was evaluated by tumor growth inhibition. Tumor growth inhibition (TGI %)=100%×(1−(TVDt (treatment group)−TVD0 (treatment group))/(TVDt (control group)−TVD0 (control group))) Relative body weight (RBW %)=BWDt/BWD0×100%
wherein, TVD0 represents the tumor volume obtained at first measurement, namely, the tumor volume before drug administration, and TVDt represents the tumor volume on the day of measurement; BWD0 represents the body weight of the animal obtained at first measurement, namely, the body weight of the animal before drug administration; BWDt represents the body weight of the animal on the day of measurement.

[2] = Stability test in liver microsomes (mouse); format: in vitro ADME; settings: mouse liver microsomes 0.5 mg/mL, compound 1 μM, 37° C.
Text: (§1) Example 5 Stability Test in Liver Microsomes
(§2) Both male CD-1 mouse pooled liver microsomes and male SD rat pooled liver microsomes were purchased from BioreclamationIVT Corporation, USA.
(§3) Phenacetin, glucose-6-phosphate dehydrogenase (G-6-PDH) and nicotinamide adenine dinucleotide phosphate (NADP) were all purchased from Sigma-Aldrich Corporation, USA. Glucose-6-phosphate (G-6-P) was purchased from Shanghai Eybridge Chemical Technology Co., Ltd.
(§4) Ten mM test compound stock solution: a certain amount of test compound was weighed, and dissolved with an appropriate volume of DMSO to prepare a stock solution with a concentration of 10 mM for use.
(§5) Reaction stopping solution: an appropriate amount of internal standard compound phenacetin was dissolved in acetonitrile to prepare a reaction stopping solution with a concentration of 1000 ng/mL for use at room temperature.
(§6) The test compound stock solution was diluted with an organic solvent (usually a mixture of acetonitrile, methanol and water with various ratios, depending on the solubility of the compound, if necessary, 1 N hydrochloric acid or 1 N sodium hydroxide would be added to facilitate solubilization) to the 0.1 mM (the final concentration of the compound in the reaction system was 1 μM) and the concentration percentage of the organic solvents in the incubation system no more than 1% (wherein the percentage of DMSO was required to be no more than 0.1%). An appropriate amount of 100 mM NADP, 500 mM G-6-P and 100 Unit/mL G-6-PDH were mixed and diluted with ultrapure water (the final system contains 1 mM NADP, 5 mM G-6-P and 1 Unit/mL G-6-PDH), pre-incubated in a 37° C. water bath for 10 minutes and then placed on ice for use as a NADPH regeneration solution. 20 mg/mL liver microsomes solution and 200 mM phosphate buffer was mixed, and diluted with ultrapure water to give a liver microsomes solution containing 2.5 mg/mL liver microsomes (the final concentration of the reaction system is 0.5 mg/mL) and 50 mM phosphate buffer. The diluted liver microsomes solution was mixed with 0.1 mM compound solution, a mixture of 100 mM EDTA, 300 mM MgCl2 solution, 200 mM phosphate buffer (the final system was 3 mM MgCl2, 1 mM EDTA and 50 mM phosphate buffer) and water in an appropriate volume was added. Finally, the NADPH regeneration solution was added, then the reaction solution was placed in a 37° C. water bath to start the reaction (the reaction time was 30 minutes), and the reaction was stopped by adding the ice-cold acetonitrile reaction stopping solution containing the internal standard. The 0-minute sample was not incubated in a 37° C. water bath, and its difference from the 30-minute sample further lies in that the ice-cold acetonitrile reaction stopping solution containing the internal standard was added first, and then the NADPH regeneration solution was added. The sample added with the reaction stopping internal standard solution was vortexed and mixed well, and then centrifuged at 4400 rpm for 10 minutes. The supernatant was taken and diluted ten times with 50% methanol for LC-MS/MS analysis.
(§7) LC-MS/MS was used to determine the concentration of the compound in the sample. The percentage of the remaining compound after 30 minutes of incubation comparing with that in the 0-minute sample was calculated using the peak area ratio of the compound to the internal standard as an indicator, to evaluate the metabolic stability of the compound.
(§8) Instrument: API4500, API4000 or LTQ Mass Spectrometer; the liquid phase is UHPLC system (Shimadzu LC-30 AD, model Nexra X2) including liquid delivery unit, column thermostat, detector and autosampler; or Agilent 1200 Binary Pump series HPLC and CTC Autosampler.
(§9) Chromatographic column: Waters XSELECT Hss T3 C18 (2.5 μm, 2.1×50 mm) or […] (5 μm, 2.0×50 mm)
(§10) A: water with 0.1% FA (formic acid) (with or without 0.1% ACN (acetonitrile))
(§11) B: acetonitrile with 0.1% FA (formic acid).

[3] = Stability test in liver microsomes (rat); format: in vitro ADME; settings: rat liver microsomes 0.5 mg/mL, compound 1 μM, 37° C.
Text: as §1, §2, §3, §4, §5, §6, §7, §8, §9, §10, §11

[4] = 10 mg/kg oral gavage once a day, Day 21

In the case of `C[C@H]1CN(C2COC2)CCN1c1ccc(Nc2cc(-c3ccnc(N4CCn5c(cc6c5CC(C)(C)C6)C4=O)c3CO)cn(C)c2=O)nc1` [GDC-0853, fenebrutinib, reference compound], the “Number of animals with CR (Day 21)” value ([1]; 10 mg/kg oral gavage once a day, 8 animals per group) is reported as 0, the “Tumor volume (mm^3) ± SD Day 0” value ([1]; 10 mg/kg oral gavage once a day, Day 0, before drug administration) is reported as 397 ± 46 mm^3 and the “TGI (%)” value [1, 4] is reported as −12.8%. For the same compound, the “Tumor volume (mm^3) ± SD Day 21” value [1, 4] was 3585 ± 494 mm^3, the “RBW (%) (Day 21)” value ([1]; 10 mg/kg oral gavage once a day, relative body weight) was 115.5% and the “Tumor growth inhibition (TGI %)” value ([1]; 10 mg/kg, oral gavage once a day, 21 days after treatment, vs vehicle control) was −12.8%. The “MLM (percentage of the remaining compound after 30 minutes of incubation)” value [2] was 76.3% and the “RLM (percentage of the remaining compound after 30 minutes of incubation)” value [3] was 81.0%.
